Laboratory results as given in US20260297106A1, “SPIROCYCLIC SUBSTITUTED OXOISOINDOLINYL PIPERIDINE-2,6-DIONE COMPOUND” (Bristol-Myers Squibb Company, priority 2023, published 2026).

Legend:
IKZF2 Helios [1] = target: T1, IKZF2 Helios (Homo sapiens, UniProt Q96SW2+Q9UKS7); assay: Jurkat Cellular Degradation Assay (IKZF2 Helios); assay type: cell-based; parameters: endogenous in cells; details: Jurkat cells, 72 h; for DC50: concentration reducing protein level by 50% vs DMSO; for Dmax: human, 100% = no detectable protein remaining, read-out: IKZF2 Helios max % deg. observed
T1 sequence (Q9UKS7 whole entry): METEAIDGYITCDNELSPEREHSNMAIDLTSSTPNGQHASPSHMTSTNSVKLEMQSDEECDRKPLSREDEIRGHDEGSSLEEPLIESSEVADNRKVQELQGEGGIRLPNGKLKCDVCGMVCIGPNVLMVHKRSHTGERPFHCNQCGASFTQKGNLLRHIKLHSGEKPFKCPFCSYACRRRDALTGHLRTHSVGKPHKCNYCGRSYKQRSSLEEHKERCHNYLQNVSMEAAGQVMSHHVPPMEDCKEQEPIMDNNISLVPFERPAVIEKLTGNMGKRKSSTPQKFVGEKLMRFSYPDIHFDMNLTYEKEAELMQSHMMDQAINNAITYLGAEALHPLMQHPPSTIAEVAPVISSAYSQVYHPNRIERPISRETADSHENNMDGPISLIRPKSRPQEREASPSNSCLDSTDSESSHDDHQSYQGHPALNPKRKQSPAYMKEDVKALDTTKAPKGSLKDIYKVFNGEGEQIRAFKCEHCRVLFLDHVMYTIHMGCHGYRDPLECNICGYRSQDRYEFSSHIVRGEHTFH
T1 sequence (Q96SW2 whole entry): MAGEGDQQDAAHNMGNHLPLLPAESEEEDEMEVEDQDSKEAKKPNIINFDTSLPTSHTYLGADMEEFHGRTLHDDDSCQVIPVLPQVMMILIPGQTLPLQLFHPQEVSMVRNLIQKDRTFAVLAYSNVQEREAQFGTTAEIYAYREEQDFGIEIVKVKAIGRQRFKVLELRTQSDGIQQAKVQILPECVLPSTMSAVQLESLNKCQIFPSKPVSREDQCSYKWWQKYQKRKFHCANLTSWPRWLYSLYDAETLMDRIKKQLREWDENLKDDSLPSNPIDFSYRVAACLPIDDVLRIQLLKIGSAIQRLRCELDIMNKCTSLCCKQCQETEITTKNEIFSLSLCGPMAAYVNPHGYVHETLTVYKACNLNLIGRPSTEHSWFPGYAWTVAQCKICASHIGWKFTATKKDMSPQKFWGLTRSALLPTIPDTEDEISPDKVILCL
T1 sequence (Q16531 whole entry partner): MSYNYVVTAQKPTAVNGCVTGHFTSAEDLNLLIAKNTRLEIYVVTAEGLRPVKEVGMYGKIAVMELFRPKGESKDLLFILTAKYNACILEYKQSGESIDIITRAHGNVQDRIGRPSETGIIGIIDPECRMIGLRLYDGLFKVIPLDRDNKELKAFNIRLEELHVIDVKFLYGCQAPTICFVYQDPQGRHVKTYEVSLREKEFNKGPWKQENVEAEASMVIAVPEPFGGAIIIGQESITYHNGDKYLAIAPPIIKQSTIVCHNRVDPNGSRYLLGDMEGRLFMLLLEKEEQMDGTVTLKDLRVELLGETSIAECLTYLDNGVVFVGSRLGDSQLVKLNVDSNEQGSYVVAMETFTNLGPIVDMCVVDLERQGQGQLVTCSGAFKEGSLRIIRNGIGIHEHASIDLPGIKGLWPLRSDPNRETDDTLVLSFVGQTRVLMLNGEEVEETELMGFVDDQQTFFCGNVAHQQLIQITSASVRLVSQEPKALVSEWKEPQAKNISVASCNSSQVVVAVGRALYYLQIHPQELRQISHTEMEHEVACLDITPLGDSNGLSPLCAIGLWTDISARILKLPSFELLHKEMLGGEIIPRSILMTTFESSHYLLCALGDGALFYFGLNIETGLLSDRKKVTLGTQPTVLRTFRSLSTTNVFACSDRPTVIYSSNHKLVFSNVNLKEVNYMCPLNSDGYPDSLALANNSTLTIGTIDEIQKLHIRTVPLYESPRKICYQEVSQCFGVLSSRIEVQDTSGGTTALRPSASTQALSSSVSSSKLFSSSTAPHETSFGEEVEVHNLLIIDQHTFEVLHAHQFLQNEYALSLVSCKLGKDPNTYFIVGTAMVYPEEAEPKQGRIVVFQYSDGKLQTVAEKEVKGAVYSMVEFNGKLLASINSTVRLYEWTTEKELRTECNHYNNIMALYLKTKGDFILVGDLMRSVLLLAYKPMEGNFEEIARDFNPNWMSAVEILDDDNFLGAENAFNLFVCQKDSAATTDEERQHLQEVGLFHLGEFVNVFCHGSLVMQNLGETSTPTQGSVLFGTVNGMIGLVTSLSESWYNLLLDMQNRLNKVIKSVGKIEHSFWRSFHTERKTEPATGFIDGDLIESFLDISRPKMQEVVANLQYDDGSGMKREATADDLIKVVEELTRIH
Experimental: Jurkat cells were plated at 80,000 cells/well in 40 μL RPMI+10% FBS in a 384-well cell culture plate prior to using acoustic dispensing technology for adding a compound of interest. Cell cultures were incubated for 72 h at 37° C. and 5% CO2. In order to facilitate analysis, cell cultures were spun down at 200 rpm for 5 min and the supernatant was discarded. After shaking the plate to dislodge the cell pellet, cells were resuspended in 50 μL of Fixation Buffer (eBioscience FoxP3 buffer set 00-5523-00) for 60 min at room temperature. After centrifuging and discarding the supernatant, cells were permeabilized with 50 μL of Permeabilization buffer (eBioscience FoxP3 buffer set 00-5523-00) for 10 min at room temperature. Following permeabilization, cells were spun down and the supernatant was replaced with 20 μL fluorescently labelled antibodies against Helios, Ikaros and Aiolos or corresponding Isotype controls in 1× Permeabilization buffer (Ikaros-Alexa488 [Biolegend, Cat #368408, 1:50], Helios-PE [CST, Cat #29360, 1:50], Aiolos-Alexa647 [Biolegend, Cat #371106 Biolegend, 1:25]) and staining reactions were incubated for 1 h at room temperature while protected from light. Subsequently, 30 μL of 1× Permeabilization buffer was added prior to centrifuging the cells and discarding the supernatant. Stained cells were resuspended in 25 μL of flow cytometry staining buffer [PBS+0.2% bovine serum albumin (BSA)] and analyzed using an Intellicyt Ique Plus flow cytometer.
(§1) Table A-1 lists the maximum observed degradation of the IKZF1 protein, IKZF2 protein, and IKZF3 protein as measured in the Jurkat Cellular Degradation assay. The results in Table A-I were rounded to two digits. In the Jurkat Cellular Degradation assay, a value of 100% indicated no detectable protein remaining or complete degradation of the protein; and a value of 0% indicated no detectable degradation of the protein by the test compound.

IKZF2 Helios [2] = target: T1, IKZF2 Helios; assay: Human Regulatory T Cell Reprogramming Assay (IKZF2 Helios); assay type: cell-based; parameters: T cells were isolated from fresh healthy leukopaks; endogenous in cells; host or cells: FACS-sorted primary human CD4+ CD127low CD25+ Treg cells from healthy leukopaks; details: CD4+ CD127low CD25+ Treg cells, 12-13 days; for DC50: concentration reducing protein level by 50% vs DMSO; for Dmax: Regulatory T cell, human, read-out: Maximum Observed Degradation IKZF2 Helios
Experimental: Human CD4^+ T cells were isolated from fresh healthy leukopaks (Stemcell Technologies) using the RosetteSep Human CD4^+ T cell enrichment cocktail (Stemcell Technologies) and Ficoll density gradient centrifugation. Leukopaks were diluted with an equal volume of phosphate-buffered saline (PBS [Gibco]) supplemented with 2% fetal bovine serum (FBS, VWR Lifescience) and incubated with RosetteSep Human CD4^+ T cell enrichment cocktail for 20 minutes before layering on Ficoll-Paque Plus solution (GE Health Care). The cell-rich interface layer was harvested and washed twice with PBS supplemented with 2% FBS. Regulatory T cells were then isolated manually using the EasySep Human CD4 CD1271WCD25^+ Regulatory T cell isolation kit (Stemcell Technologies) according to the manufacturer's instructions. Cells were rested overnight in Roswell Park Memorial Institute (RPMI) 1640 media (Gibco) supplemented with 10% FBS, Pen/Strep (Gibco), MEM-NEAA (Gibco), and sodium pyruvate (Gibco) in a humidified incubator (37° C., 5% CO2). Cells were then stained for CD4 (clone: RPA-T4, Biolegend), CD25 (clone: 2A3, BD Biosciences), and CD127 (clone: hIL-7R-M21, BD Biosciences). CD4^+ CD127^lowCD25^+ cells were sorted on a BD FACS Aria Fusion sorter to a purity of 95% or greater. Sorted cells were immediately used or cryopreserved for downstream assays.
Fresh or cryopreserved FACS-sorted CD4^+ CD127^lowCD25^+ Treg cells were cultured at 25,000-50,000 cells/well of 96-well round bottom plates in RPMI 1640 media (Gibco) supplemented with 10% FBS, Pen/Strep (Gibco), MEM-NEAA (Gibco), and sodium pyruvate (Gibco). Cells were stimulated with Treg Xpander beads (Thermo Fisher) at cells-to-beads ratio of 1:4 in the presence of 500 U/mL recombinant human IL-2 (Proleukin). Compounds were added at titrated doses and cells were incubated at 37° C., 5% CO2 for 12-13 days. Recombinant human IL-2 and compound were replenished every 2-3 days during the entire culture duration. On day 12 or 13, cells were restimulated with phorbol 12-myristate 13-acetate (PMA) and ionomycin in the presence of the protein transport inhibitors brefeldin A and monensin (eBioscience Cell Stimulation Cocktail plus protein transport inhibitors, 500×, Catalog number 00-4975-93) before proceeding with flow cytometry staining and analysis.
For flow cytometry staining, cells were washed twice with flow cytometry staining buffer (Thermo Fisher) and incubated in Human Tru-stain Fc block (Biolegend) for 10 minutes before adding eFluor780 viability dye (Thermo Fisher) and surface marker antibody cocktail for 30 minutes at 4° C. Cells were then fixed and permeabilized by incubation with FoxP3 transcription factor staining buffer (Thermo Fisher) for 30 minutes at 4° C. as per the kit manufacturer's instructions. Cells were washed twice with the Perm/Wash buffer supplied in the kit as per the manufacturer's instructions and incubated overnight at 4° C. with an intracellular antibody cocktail comprised of antibodies specific for the transcription factors shown in Table C. Cells were washed twice with Perm/Wash buffer and resuspended in flow cytometry staining buffer (Thermo Fisher) prior to acquisition. Sample acquisition and analysis was performed using a BD LSRFortessa (BD Biosciences) flow cytometer. Single stain controls for each fluorochrome were prepared using UltraComp eBead Compensation Beads (Thermo Fisher). Data were analyzed using FlowJo version 10 and GraphPad Prism Software.
as §1, with “C-1” for “A-1”, “the” for “the IKZF1 protein,”, “protein” for “protein,”, “IKZF4” for “IKZF3”, “Human Regulatory T Cell Reprogramming” for “Jurkat Cellular Degradation”, “C-1” for “A-I”

O=C1CCC(N2Cc3c(ccc(-c4cc(CN5CC(c6ccccc6)C5)ccn4)c3F)C2=O)C(=O)N1 (centres unmarked) [Comparative Compound A, 3-(4-fluoro-1-oxo-5-(4-((3-phenylazetidin-1-yl)methyl)pyridin-2-yl)isoindolin-2-yl) piperidine-2,6-dione]
DC50 (IKZF2 Helios [1]): 2.9 nM
DC50 (IKZF2 Helios [2]): 2.2 nM
Dmax (IKZF2 Helios [2]): 92%

Nc1nc(-c2ccc3c(c2)CN(C2CCC(=O)NC2=O)C3=O)ccc1CN1CC2(CCC2)C1 (centres unmarked) [Comparative Compound B, 3-(5-(5-((2-azaspiro[3.3]heptan-2-yl)methyl)-6-aminopyridin-2-yl)-1-oxoisoindolin-2-yl) piperidine-2,6-dione]
DC50 (IKZF2 Helios [1]): 8 nM
Dmax (IKZF2 Helios [1]): 90%
DC50 (IKZF2 Helios [2]): 25 nM
Dmax (IKZF2 Helios [2]): 90%

Nc1nc(-c2ccc3c(c2F)CN(C2CCC(=O)NC2=O)C3=O)ccc1CN1CC2(CCCOC2)C1 (centres unmarked) [Example 1, 3-(5-(5-((6-oxa-2-azaspiro[3.5]nonan-2-yl)methyl)-6-aminopyridin-2-yl)-4-fluoro-1-oxoisoindolin-2-yl) piperidine-2,6-dione]
DC50 (IKZF2 Helios [1]): 8.5 nM
Dmax (IKZF2 Helios [1]): 91%
DC50 (IKZF2 Helios [2]): 38 nM
Dmax (IKZF2 Helios [2]): 85%
